Source: PMC4225009, “Structure-activity-relationship study of N-acyl-N-phenylpiperazines as potential inhibitors of the Excitatory Amino Acid Transporters (EAATs): improving the potency of a micromolar screening Hit is not truism” (SpringerPlus, 2013)
Like-named read-outs stand apart in the source and are kept apart here.

Legend:
human EAAT2 = biological target: T1, human EAAT2 (Homo sapiens, UniProt P43004); test: [3H]-D-aspartate uptake assay at HEK293 cells stably expressing human EAAT2; type: cell-based
T1 construct: expressed in transfected cells
T1 sequence (P43004 whole entry): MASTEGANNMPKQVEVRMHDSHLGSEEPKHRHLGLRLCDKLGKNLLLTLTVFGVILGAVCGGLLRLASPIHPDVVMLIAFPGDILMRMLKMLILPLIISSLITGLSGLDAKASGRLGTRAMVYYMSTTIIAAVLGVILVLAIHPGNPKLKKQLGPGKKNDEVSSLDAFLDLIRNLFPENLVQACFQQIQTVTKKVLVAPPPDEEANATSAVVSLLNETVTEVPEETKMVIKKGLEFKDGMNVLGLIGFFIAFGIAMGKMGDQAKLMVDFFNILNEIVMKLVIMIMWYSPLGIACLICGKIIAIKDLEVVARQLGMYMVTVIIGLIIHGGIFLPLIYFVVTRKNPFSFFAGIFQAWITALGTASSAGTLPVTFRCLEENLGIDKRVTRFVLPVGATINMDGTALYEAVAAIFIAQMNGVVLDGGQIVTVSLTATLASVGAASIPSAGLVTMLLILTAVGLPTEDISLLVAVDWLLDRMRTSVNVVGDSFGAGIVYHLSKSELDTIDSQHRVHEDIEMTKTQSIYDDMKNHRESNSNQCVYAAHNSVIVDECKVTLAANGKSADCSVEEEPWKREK
From the text: (§1) In total, […] piperazine analogs 2.1-2.40 and 3.1-3.12 were characterized pharmacologically at stable HEK293 cells expressing human EAAT1-3 in a [^3H]-D-aspartate uptake assay, (Jensen & Bräuner-Osborne [2004]) and the results are summarized in Table 1 and Table 2. […] Usually, such findings would lead to the conclusion that the bicyclo-[2.2.1]-heptanyl group occupies a promiscuous hydrophobic pocket, which could be optimized for increased potency. However, upon increasing or decreasing the hydrophobic bulk and/or flexibility, a clear drop in potency was observed (analogs 2.1-2.17, Table 1). […] These findings could open up for the hypothesis that the pocket is indeed not hydrophobic but instead hydrophilic in nature. Upon binding of the hydrophobic alkane group, water molecules are forced out and ligand binding is entropically driven rather than enthalpically. Thus analogs 2.18-2.31, which comprise a hydrophobic group, could be potential inhibitors.
(§2) Analogs 2.22-2.31, 2.36-2.40, 3.3, 3.4, 3.6 and 3.12 were obtained as 5 mg portions pre-dissolved in DMSO from ChemBridge corporation and used directly in the [3H]-Asp-uptake assay.

human EAAT1-3 = test: [3H]-D-aspartate uptake assay, statements made for EAAT1-3 together; type: cell-based; conditions: for inhibitory activity at EAAT1-3 (in words): HEK293 cells expressing human EAAT1-3, [3H]-D-aspartate uptake; for drop in inhibitory potency across the subtypes: relative to the lead, EAAT1-3
From the text: as §1, §2

human EAAT1 = biological target: T2, human EAAT1 (Homo sapiens, UniProt P43003); test: [3H]-D-aspartate uptake assay at HEK293 cells stably expressing human EAAT1; type: cell-based
T2 construct: expressed in transfected cells
T2 sequence (P43003 whole entry): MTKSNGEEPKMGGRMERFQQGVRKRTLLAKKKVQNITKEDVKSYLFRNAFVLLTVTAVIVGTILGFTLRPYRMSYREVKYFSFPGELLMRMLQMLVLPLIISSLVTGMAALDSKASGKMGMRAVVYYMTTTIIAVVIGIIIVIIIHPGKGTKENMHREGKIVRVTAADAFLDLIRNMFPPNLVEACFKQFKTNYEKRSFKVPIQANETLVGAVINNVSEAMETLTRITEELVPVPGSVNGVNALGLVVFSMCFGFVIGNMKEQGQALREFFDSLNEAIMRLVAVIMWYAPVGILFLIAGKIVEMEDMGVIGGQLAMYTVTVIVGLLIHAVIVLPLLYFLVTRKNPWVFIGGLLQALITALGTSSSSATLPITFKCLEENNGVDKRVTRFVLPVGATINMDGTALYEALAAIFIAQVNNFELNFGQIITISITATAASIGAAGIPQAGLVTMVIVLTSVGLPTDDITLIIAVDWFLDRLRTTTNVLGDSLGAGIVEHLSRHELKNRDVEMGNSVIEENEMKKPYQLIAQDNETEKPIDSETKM
From the text: as §1, §2

human EAAT3 = biological target: T3, human EAAT3 (Homo sapiens, UniProt P43005); test: [3H]-D-aspartate uptake assay at HEK293 cells stably expressing human EAAT3; type: cell-based
T3 construct: expressed in transfected cells
T3 sequence (P43005 1-524): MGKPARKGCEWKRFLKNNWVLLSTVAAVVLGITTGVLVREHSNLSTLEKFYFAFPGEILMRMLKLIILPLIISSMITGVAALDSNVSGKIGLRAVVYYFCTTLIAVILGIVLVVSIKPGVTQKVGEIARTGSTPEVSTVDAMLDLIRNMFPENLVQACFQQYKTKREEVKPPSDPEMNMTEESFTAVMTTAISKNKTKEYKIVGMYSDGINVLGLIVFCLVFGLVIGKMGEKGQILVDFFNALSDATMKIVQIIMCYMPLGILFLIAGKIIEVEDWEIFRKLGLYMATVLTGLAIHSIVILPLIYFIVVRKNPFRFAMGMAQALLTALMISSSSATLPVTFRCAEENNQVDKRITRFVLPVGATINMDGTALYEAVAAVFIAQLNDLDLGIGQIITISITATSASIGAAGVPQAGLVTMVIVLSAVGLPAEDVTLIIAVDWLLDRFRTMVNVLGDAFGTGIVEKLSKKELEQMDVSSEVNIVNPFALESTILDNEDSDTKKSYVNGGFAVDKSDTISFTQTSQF
From the text: as §1, §2

[1] = D-aspartate uptake, HEK293 cells stably expressing human EAAT2, analogs 3.1-3.12 (Table 2), read-out: EAAT2 IC50
[2] = D-aspartate uptake, HEK293 cells stably expressing human EAAT1, analogs 3.1-3.12 (Table 2), read-out: EAAT1 IC50
[3] = D-aspartate uptake, HEK293 cells stably expressing human EAAT3, analogs 3.1-3.12 (Table 2), read-out: EAAT3 IC50
[4] = [3H]-D-aspartate uptake, HEK293 cells stably expressing human EAAT2, analogs 1 and 2.1-2.40 (Table 1), read-out: EAAT2 IC50
[5] = [3H]-D-aspartate uptake, HEK293 cells stably expressing human EAAT1, analogs 1 and 2.1-2.40 (Table 1), read-out: EAAT1 IC50
[6] = [3H]-D-aspartate uptake, HEK293 cells stably expressing human EAAT3, analogs 1 and 2.1-2.40 (Table 1), read-out: EAAT3 IC50

SMILES	IC50 (human EAAT2; [1]) [µM]	inhibitory activity at EAAT1-3 (in words) (human EAAT1-3)	IC50 (human EAAT1; [2]) [µM]	melting point	IC50 (human EAAT3; [3]) [µM]	IC50 (human EAAT2; [4]) [µM]	drop in inhibitory potency across the subtypes (human EAAT1-3)	IC50 (human EAAT1; [5]) [µM]	IC50 (human EAAT3; [6]) [µM]	IC50 (human EAAT2) [µM]	IC50 (human EAAT1) [µM]	IC50 (human EAAT3) [µM]
O=C(C1CC2CCC1C2)N1CCN(c2ccc(C(F)(F)F)cc2)CC1 (racemic) [(±)-endo-exo-3.2, (±)-endo-exo-Bicyclo[2.2.1]heptan-2-yl(4-(4-(trifluoromethyl)phenyl)piperazin-1-yl)methanone]	> 300	loss of inhibitory activity	> 300	126 to 127 °C (dec.)	> 300	–	–	–	–	–	–	–
O=C(C1CC2CCC1C2)N1CCN(c2cccc(O)c2)CC1 (racemic) [(±)-endo-exo-3.8, (±)-endo-exo-Bicyclo[2.2.1]heptan-2-yl(4-(3-hydroxyphenyl)piperazin-1-yl)methanone]	> 300	–	> 300	187 to 189 °C (dec.)	> 300	–	–	–	–	–	–	–
O=C(C1CCCCC1)N1CCN(c2cccc(C(F)(F)F)c2)CC1 [2.3, Cyclohexyl(4-(3-(trifluoromethyl)phenyl)piperazin-1-yl)methanone]	–	–	–	–	–	~100	5-15 fold	~100	~100	–	–	–
O=C(c1ccccc1)N1CCN(c2cccc(C(F)(F)F)c2)CC1 [2.11, Phenyl(4-(3-(trifluoromethyl)phenyl)piperazin-1-yl)methanone]	–	–	–	–	–	> 100	5-15 fold	~150	> 100	–	–	–
O=C(c1ccc2c(c1)OCO2)N1CCN(c2cccc(C(F)(F)F)c2)CC1 [2.12, Benzo[d][1,3]dioxol-5-yl(4-(3-(trifluoromethyl)phenyl)piperazin-1-yl)methanone]	–	–	–	87 to 89 °C	–	> 100	–	> 100	> 100	–	–	–
O=C(N1CCN(c2cccc(C(F)(F)F)c2)CC1)C1(c2ccccc2)CCCC1 [2.14, 1-Phenylcyclopentyl-(4-(3-(trifluoromethyl)phenyl)piperazin-1-yl)methanone]	–	–	–	77 to 79 °C	–	–	–	–	–	> 300	> 300	> 300
O=C(OCc1ccccc1)N1CCN(c2cccc(C(F)(F)F)c2)CC1 [2.32, Benzyl 4-(3-(trifluoromethyl)phenyl)piperazine-1-carboxylate]	–	neither the carbamate 2.32 nor the sulfonamide 2.33 analog displayed inhibitory activity	–	–	–	> 300	–	> 1000	> 300	–	–	–
O=S(=O)(c1ccccc1)N1CCN(c2cccc(C(F)(F)F)c2)CC1 [2.33, 1-(Phenylsulfonyl)-4-(3-(trifluoromethyl)phenyl)piperazine]	–	neither the carbamate 2.32 nor the sulfonamide 2.33 analog displayed inhibitory activity	–	109 to 111 °C (dec.)	–	> 300	–	> 1000	> 1000	–	–	–
